# From EP4678639A1, “SALT OF BENZIMIDAZOLE DERIVATIVE” (JW Pharmaceutical Corporation, priority 2023, dated 2024)
# Entries after “also recorded” stand apart in the source; their conditions may differ. Structures can show the parent of a compound that is named as a salt.
# What was measured:
# [1] = Photostability test, ultraviolet light (200 W·hr/m2) exposure; conditions: for After Ultraviolet Light Exposure (200 W hr/m2)(%) Degradant / After Ultraviolet Light Exposure (200 W hr/m2)(%) Total Related substances: Table 10, UV 200 W·hr/m2, PE bag; for Change (%) Degradant: Table 10, after UV exposure vs initial; for Initial (%) Degradant / Initial (%) Total Related substances: Table 10, initial; for Change in Quality (%) Light (Ultraviolet) Degradant / Change in Quality (%) Light (Ultraviolet) Purity: Table 12 summary
# Description: (§1) A photostability comparative test was conducted on each of the above-mentioned prepared tegoprazan acid addition salts. The test was conducted by exposing the sample to light with an energy of 200 W hr/m^2 of ultraviolet light and 1.2 Mlux hr of visible light in accordance with The International Council for Harmonisation of Technical Requirements for Pharmaceuticals for Human Use (ICH) guideline, with the samples packaged in a single PE bag and spread thinly enough to ensure exposure to the light source, taking humidity stability into consideration. The purity of the acid addition salts and the change in the amount of degradants at the initial time point and after exposure to ultraviolet light or visible light were measured by HPLC.
# [2] = Solid-state stress stability test (humidity 90 % RH); conditions: for absorb moisture and deliquesce / melted / Remarks: 90 % RH; for Remarks: 1 month, state of the solid; for Initial (%) Degradant / Initial (%) Total Related substances: Table 9, initial; for Change in Quality (%) 90 % RH (4 weeks) Degradant / Change in Quality (%) 90 % RH (4 weeks) Purity: Table 12 summary
# [3] = Solid-state accelerated stability test (40 ± 2 °C/RH 75 ± 5 %); conditions: for After 1 Month (%) Degradant / After 1 Month (%) Total Related substances / Change (%) Degradant: 40 ± 2 °C / RH 75 ± 5 %; for Change (%) Degradant: 1 month vs initial; for Initial (%) Total Related substances / Initial (%) Degradant: Table 7, initial; for Initial (%) Degradant: degradant of Formula 4; for Change in Quality (%) Accelerated (4 weeks) Degradant / Change in Quality (%) Accelerated (4 weeks) Purity: Table 12 summary
# [4] = Solid-state stress stability test (temperature 60 °C); conditions: for Change (%) Degradant: 1 month vs initial; for Initial (%) Degradant / Initial (%) Total Related substances: Table 8, initial
# Description: Operation and Calculation: The blank solution, standard solution, and test solution were sequentially tested under the instrument operating conditions according to the liquid chromatography method in the General Test Methods of the 12th Edition of the Korean Pharmacopoeia, and the amount of related substances was calculated using the following equation. Amount of each related; substance (%) = (AT)/(AS) × (CS)/(CT) × (Molecular weight; of the sample)/(Molecular weight; of the standard; product) × P × (1)/(RR; F) [formula] AT = Area of each related substance peak obtained from the test solution AS = Area of the tegoprazan peak obtained from the standard solution CS = Concentration of standard solution (mg/mL) CT = Concentration of test solution (mg/mL) P = Purity/Assay/Potency (%) of standard product RRF = Relative response factor (1.0)
# A solid-state stability comparative test was conducted on each of the above-mentioned prepared tegoprazan acid addition salts. The stability comparative test was conducted for 1 month under the conditions shown in Table 6 below in accordance with The International Council for Harmonisation of Technical Requirements for Pharmaceuticals for Human Use (ICH) guideline, and the purity of the acid addition salt, total related substances, and the content of degradants were measured by HPLC at the initial time point and after 1 month. Total related substances and degradants were measured according to the related substance test method (HPLC).
# 2) Stress Stability Test (temperature 60 °C)
# [5] = Liquid stability comparative test (20 mg/mL in purified water, 40 °C, 24 hours, HPLC); format: physicochemical; conditions: for After 24 hours Purity (%) / After 24 hours Degradant (%): 40 °C; for solid precipitation / solution state: stored at 40 °C for 24 hours
# Description: The analysis conditions are as follows.
# Each sample was dissolved in purified water to prepare a solution with a concentration of 20 mg/mL, stored at an external temperature of 40 °C, and analyzed by HPLC at the initial time point and after 24 hours to measure purity, and the change in the generated degradant (Formula 4) was measured. The analysis of total related substances and degradants was performed by taking a liquid from a solution prepared at a concentration of 20 mg/mL, diluting it to a concentration of 4 mg/mL with the diluent of the related substance test method (HPLC), and measuring it as a test solution, and analyzing it according to the related substance test method (HPLC).
# [6] = Photostability test, visible light (1.2 Mlux·hr) exposure; conditions: for Change (%) Degradant: Table 11, after exposure vs initial; for Initial (%) Degradant / Initial (%) Total Related substances: Table 11, initial; for After (%) Degradant / After (%) Total Related substances: Table 11 under heading Visible Light (1.2 Mlux-hr) Exposure Test; for Change in Quality (%) Light (Visible) Degradant: Table 12 summary
# Description: as §1
# [7] = 20 mg/mL in purified water, initial time point
# [8] = degradant of Formula 4, 20 mg/mL in purified water
smiles,measurement,setting,value
Cc1nc2c(O[C@H]3CCOc4cc(F)cc(F)c43)cc(C(=O)N(C)C)cc2[nH]1 [Methanesulfonate Salt (Amorphous Form)],After Ultraviolet Light Exposure (200 W hr/m2)(%) Degradant,[1],0.366%
same,After Ultraviolet Light Exposure (200 W hr/m2)(%) Total Related substances,[1],0.599%
same,Change (%) Degradant,[1],0.082%
same,Initial (%) Degradant,[1],0.284%
same,Initial (%) Total Related substances,[1],0.530%
same,Change in Quality (%) Light (Ultraviolet) Degradant,[1],0.082%
same,Change in Quality (%) Light (Ultraviolet) Purity,[1],0.069%
same,absorb moisture and deliquesce / melted,[2],absorb moisture and deliquesce
same,Remarks,[2],Melted
same,Initial (%) Degradant,[2],0.284%
same,Initial (%) Total Related substances,[2],0.530%
same,Change in Quality (%) 90 % RH (4 weeks) Degradant,[2],Melted
same,Change in Quality (%) 90 % RH (4 weeks) Purity,[2],Melted
same,After 1 Month (%) Degradant,[3],1.124%
same,After 1 Month (%) Total Related substances,[3],1.653%
same,Change (%) Degradant,[3],0.840%
same,Initial (%) Total Related substances,[3],0.530%
same,Initial (%) Degradant,[3],0.284%
same,Change in Quality (%) Accelerated (4 weeks) Degradant,[3],0.840%
same,Change in Quality (%) Accelerated (4 weeks) Purity,[3],-1.123%
same,increase in total related substances after 1 month,[3]; accelerated stability,≥ 0.3%
same,total related substances increased after 1 month,[4]; 60 °C,≥ 5.0%
same,After 1 Month (%) Degradant,"[4]; 60 °C, 1 month",9.245%
same,After 1 Month (%) Total Related substances,"[4]; 60 °C, 1 month",12.245%
same,"change in appearance, change in the color of the solid","[4]; 60 °C, 1 month",change in appearance
same,Change (%) Degradant,[4]; 60 °C,8.961%
same,Remarks,"[4]; 60 °C, 1 month, appearance",Discolorat ion
same,Initial (%) Degradant,[4],0.284%
same,Initial (%) Total Related substances,[4],0.530%
same,Change in Quality (%) 60 °C (4 weeks) Degradant,[4]; Table 12 summary,8.961%
same,After 24 hours Purity (%),[5]; 20 mg/mL in purified water,99.34%
same,Initial Purity (%),[5]; [7],99.90%
same,After 24 hours Degradant (%),[5]; [8],0.552%
same,Initial Degradant (%),"[5]; degradant of Formula 4, 20 mg/mL in purified water, initial time point",0.063%
same,Amount of Change Degradant (%),[5]; initial vs after 24 hours at 40 °C,0.49%
same,Change (%) Degradant,[6],0.154%
same,Initial (%) Degradant,[6],0.284%
same,Initial (%) Total Related substances,[6],0.530%
same,After (%) Degradant,[6],0.438%
same,After (%) Total Related substances,[6],0.909%
same,Change in Quality (%) Light (Visible) Degradant,[6],0.154%
Cc1nc2c(O[C@H]3CCOc4cc(F)cc(F)c43)cc(C(=O)N(C)C)cc2[nH]1 [Pidolate Salt],After Ultraviolet Light Exposure (200 W hr/m2)(%) Degradant,[1],0.020%
same,After Ultraviolet Light Exposure (200 W hr/m2)(%) Total Related substances,[1],0.266%
same,Change (%) Degradant,[1],0.019%
same,Initial (%) Degradant,[1],0.001%
same,Initial (%) Total Related substances,[1],0.145%
same,Change in Quality (%) Light (Ultraviolet) Degradant,[1],0.019%
same,Change in Quality (%) Light (Ultraviolet) Purity,[1],0.121%
same,Remarks,[2],Melted
same,absorb moisture and deliquesce / melted,[2]; listed as pidolate,deliquesced
same,absorb moisture and deliquesce / melted,[2]; listed as pidolate salt,absorb moisture and deliquesce; also recorded: melted
same,Initial (%) Degradant,[2],0.001%
same,Initial (%) Total Related substances,[2],0.145%
same,Change in Quality (%) 90 % RH (4 weeks) Degradant,[2],Melted
same,Change in Quality (%) 90 % RH (4 weeks) Purity,[2],Melted
same,After 1 Month (%) Degradant,[3],0.003%
same,After 1 Month (%) Total Related substances,[3],0.146%
same,Change (%) Degradant,[3],0.002%
same,Initial (%) Total Related substances,[3],0.145%
same,Initial (%) Degradant,[3],0.001%
same,Change in Quality (%) Accelerated (4 weeks) Degradant,[3],0.002%
same,Change in Quality (%) Accelerated (4 weeks) Purity,[3],-0.001%
same,purity change after 1 month,[3]; accelerated stability,≤ 0.1%
same,After 1 Month (%) Degradant,"[4]; 60 °C, 1 month",0.088%
same,After 1 Month (%) Total Related substances,"[4]; 60 °C, 1 month",0.353%
same,Change (%) Degradant,[4]; 60 °C,0.087%
same,Initial (%) Degradant,[4],0.001%
same,Initial (%) Total Related substances,[4],0.145%
same,Change in Quality (%) 60 °C (4 weeks) Degradant,[4]; Table 12 summary,0.087%
same,Change in Quality (%) 60 °C (4 weeks) Purity,[4]; Table 12 summary,-0.208%
same,After 24 hours Purity (%),[5]; 20 mg/mL in purified water,Solid precipitated
same,Initial Purity (%),[5]; [7],99.98%
same,After 24 hours Degradant (%),[5]; [8],Solid precipitated
same,solid precipitation / solution state,[5]; listed as pidolate,a solid precipitated
same,solid precipitation / solution state,[5]; listed as pidolate salt,solid precipitation; also recorded: solids were precipitated
same,Change (%) Degradant,[6],0.067%
same,Initial (%) Degradant,[6],0.001%
same,Initial (%) Total Related substances,[6],0.145%
same,After (%) Degradant,[6],0.068%
same,After (%) Total Related substances,[6],0.463%
same,Change in Quality (%) Light (Visible) Degradant,[6],0.067%
